Source: ChEMBL document CHEMBL1212927, “Synthesis and structure-activity relationships of novel 8a-aza-8a-homoerythromycin A ketolides” (2010)
Converted amounts (≈) assume the structure as drawn.

Columns and labels:
Streptococcus pneumoniae [1] = test: Antibacterial activity against constitutive macrolide-lincosamide-streptogramin B-resistant Streptococcus pneumoniae B0627 by agar microdilution method; assay type: functional
Moraxella catarrhalis = test: Antibacterial activity against Moraxella catarrhalis B0324 by agar microdilution method; assay type: functional
Haemophilus influenzae = test: Antibacterial activity against Haemophilus influenzae B0529 by agar microdilution method; assay type: functional
Streptococcus pneumoniae [2] = test: Antibacterial activity against erythromycin-susceptible Streptococcus pneumoniae B0541 by agar microdilution method
Streptococcus pyogenes [3] = test: Antibacterial activity against constitutive macrolide-lincosamide-streptogramin B-resistant Streptococcus pyogenes B0544 by agar microdilution method; assay type: functional
Streptococcus pyogenes [4] = test: Antibacterial activity against inducible macrolide-lincosamide-streptogramin B-resistant Streptococcus pyogenes B0543 by agar microdilution method; assay type: functional
Streptococcus pyogenes [5] = test: Antibacterial activity against erythromycin A-susceptible Streptococcus pyogenes B0542 by agar microdilution method
Streptococcus pneumoniae [6] = test: Antibacterial activity against efflux-resistant Streptococcus pneumoniae B0326 by agar microdilution method; assay type: functional
Staphylococcus aureus [7] = test: Antibacterial activity against efflux-resistant Staphylococcus aureus B0331 by agar microdilution method; assay type: functional
Staphylococcus aureus [8] = test: Antibacterial activity against inducible macrolide-lincosamide-streptogramin B-resistant Staphylococcus aureus B0538 by agar microdilution method; assay type: functional
Staphylococcus aureus [9] = test: Antibacterial activity against constitutive macrolide-lincosamide-streptogramin B-resistant Staphylococcus aureus B0330 by agar microdilution method; assay type: functional
Staphylococcus aureus [10] = test: Antibacterial activity against erythromycin A-susceptible Staphylococcus aureus B0329 by agar microdilution method
Streptococcus pyogenes [11] = test: Antibacterial activity against efflux-resistant Streptococcus pyogenes B0545 by agar microdilution method; assay type: functional

SMILES | MIC (Streptococcus pneumoniae [1]) [µg/mL] | MIC (Moraxella catarrhalis) [µg/mL] | MIC (Haemophilus influenzae) [µg/mL] | MIC (Streptococcus pneumoniae [2]) [µg/mL] | MIC (Streptococcus pyogenes [3]) [µg/mL] | MIC (Streptococcus pyogenes [4]) [µg/mL] | MIC (Streptococcus pyogenes [5]) [µg/mL] | MIC (Streptococcus pneumoniae [6]) [µg/mL] | MIC (Staphylococcus aureus [7]) [µg/mL] | MIC (Staphylococcus aureus [8]) [µg/mL] | MIC (Staphylococcus aureus [9]) [µg/mL] | MIC (Staphylococcus aureus [10]) [µg/mL] | MIC (Streptococcus pyogenes [11]) [µg/mL]
CC[C@H]1OC(=O)[C@H](C)C(=O)[C@H](C)[C@@H](O[C@@H]2O[C@H](C)C[C@H](N(C)C)[C@H]2O)[C@](C)(OCC(O)CNc2cnc3ccccc3c2)C[C@@H](C)NC(=O)[C@H](C)[C@@H](O)[C@]1(C)O (some centres undefined) | 8 (≈ 10.1 µM) | 0.5 (≈ 0.634 µM) | 8 (≈ 10.1 µM) | ≤ 0.125 | 16 (≈ 20.3 µM) | 4 (≈ 5.07 µM) | ≤ 0.125 | 2 (≈ 2.53 µM) | 1 (≈ 1.27 µM) | 2 (≈ 2.53 µM) | > 64 | 2 (≈ 2.53 µM) | 8 (≈ 10.1 µM)
CC[C@H]1OC(=O)[C@H](C)C(=O)[C@H](C)[C@@H](O[C@@H]2O[C@H](C)C[C@H](N(C)C)[C@H]2O)[C@](C)(OCC(O)CN[C@H](C)Cc2ccc([N+](=O)[O-])cc2)C[C@@H](C)NC(=O)[C@H](C)[C@@H](O)[C@]1(C)O (mixture of isomers) | 2 | 0.25 | 1 | ≤ 0.125 | 4 | 0.5 | ≤ 0.125 | 1 | 2 | 2 | > 64 | 0.5 | 0.5
CC[C@H]1OC(=O)[C@H](C)C(=O)[C@H](C)[C@@H](O[C@@H]2O[C@H](C)C[C@H](N(C)C)[C@H]2O)[C@](C)(OCC(O)CNCCc2cccnc2)C[C@@H](C)NC(=O)[C@H](C)[C@@H](O)[C@]1(C)O (some centres undefined) | 2 (≈ 2.61 µM) | 1 (≈ 1.3 µM) | 8 (≈ 10.4 µM) | 0.5 (≈ 0.652 µM) | 32 (≈ 41.7 µM) | 4 (≈ 5.22 µM) | 0.25 (≈ 0.326 µM) | 8 (≈ 10.4 µM) | 4 (≈ 5.22 µM) | 8 (≈ 10.4 µM) | > 64 | 4 (≈ 5.22 µM) | 2 (≈ 2.61 µM)
CC[C@H]1OC(=O)[C@H](C)C(=O)[C@H](C)[C@@H](O[C@@H]2O[C@H](C)C[C@H](N(C)C)[C@H]2O)[C@](C)(OCC(O)CN2CCN(c3ccc(F)cc3)CC2)C[C@@H](C)NC(=O)[C@H](C)[C@@H](O)[C@]1(C)O (some centres undefined) | 32 (≈ 38.8 µM) | 4 (≈ 4.85 µM) | 32 (≈ 38.8 µM) | 0.5 (≈ 0.606 µM) | > 64 | 4 (≈ 4.85 µM) | ≤ 0.125 | 16 (≈ 19.4 µM) | 16 (≈ 19.4 µM) | 16 (≈ 19.4 µM) | > 64 | 4 (≈ 4.85 µM) | 4 (≈ 4.85 µM)
CC[C@H]1OC(=O)[C@H](C)C(=O)[C@H](C)[C@@H](O[C@@H]2O[C@H](C)C[C@H](N(C)C)[C@H]2O)[C@](C)(OCC(O)CNCCCCc2ccccc2)C[C@@H](C)NC(=O)[C@H](C)[C@@H](O)[C@]1(C)O (mixture of isomers) | 1 | ≤ 0.125 | 8 | ≤ 0.125 | 8 | 0.5 | 0.25 | 4 | 2 | 2 | > 64 | 2 | 0.5
CC[C@H]1OC(=O)[C@H](C)C(=O)[C@H](C)[C@@H](O[C@@H]2O[C@H](C)C[C@H](N(C)C)[C@H]2O)[C@](C)(OCC=Cc2cnc3ccccc3c2)C[C@@H](C)C(=O)[C@H](C)[C@H]2NC(=O)O[C@@]21C [CETHROMYCIN] | ≤ 0.125 | ≤ 0.125 | 1 (≈ 1.31 µM) | ≤ 0.06 | 1 (≈ 1.31 µM) | ≤ 0.06 | ≤ 0.06 | ≤ 0.06 | 0.25 (≈ 0.326 µM) | 0.25 (≈ 0.326 µM) | > 64 | ≤ 0.06 | ≤ 0.125
CC[C@H]1OC(=O)[C@H](C)C(=O)[C@H](C)[C@@H](O[C@@H]2O[C@H](C)C[C@H](N(C)C)[C@H]2O)[C@](C)(OCC(O)CN2CCN(c3cnc4ccccc4c3)CC2)C[C@@H](C)NC(=O)[C@H](C)[C@@H](O)[C@]1(C)O (some centres undefined) | 4 (≈ 4.66 µM) | 4 (≈ 4.66 µM) | 8 (≈ 9.32 µM) | ≤ 0.125 | 32 (≈ 37.3 µM) | 8 (≈ 9.32 µM) | ≤ 0.125 | 1 (≈ 1.17 µM) | 0.5 (≈ 0.583 µM) | 2 (≈ 2.33 µM) | > 64 | 1 (≈ 1.17 µM) | 4 (≈ 4.66 µM)
C=CCO[C@]1(C)C[C@@H](C)NC(=O)[C@H](C)[C@@H](O)[C@](C)(O)[C@@H](CC)OC(=O)[C@H](C)C(=O)[C@H](C)[C@H]1O[C@@H]1O[C@H](C)C[C@H](N(C)C)[C@H]1O | > 64 | 8 (≈ 12.7 µM) | 16 (≈ 25.4 µM) | 1 (≈ 1.59 µM) | > 64 | > 64 | 4 (≈ 6.36 µM) | 4 (≈ 6.36 µM) | 16 (≈ 25.4 µM) | > 64 | > 64 | 8 (≈ 12.7 µM) | 8 (≈ 12.7 µM)
CC[C@H]1OC(=O)[C@H](C)C(=O)[C@H](C)[C@@H](O[C@@H]2O[C@H](C)C[C@H](N(C)C)[C@H]2O)[C@](C)(OCC2CO2)C[C@@H](C)NC(=O)[C@H](C)[C@@H](O)[C@]1(C)O (some centres undefined) | > 64 | 16 (≈ 24.8 µM) | 32 (≈ 49.6 µM) | 2 (≈ 3.1 µM) | > 64 | > 64 | 4 (≈ 6.2 µM) | 8 (≈ 12.4 µM) | 16 (≈ 24.8 µM) | > 64 | > 64 | 4 (≈ 6.2 µM) | 8 (≈ 12.4 µM)
CC[C@H]1OC(=O)[C@H](C)C(=O)[C@H](C)[C@@H](O[C@@H]2O[C@H](C)C[C@H](N(C)C)[C@H]2O)[C@](C)(OCC(O)CNc2ccc3ncccc3c2)C[C@@H](C)NC(=O)[C@H](C)[C@@H](O)[C@]1(C)O (some centres undefined) | 2 (≈ 2.53 µM) | 1 (≈ 1.27 µM) | 0.5 (≈ 0.634 µM) | ≤ 0.125 | 8 (≈ 10.1 µM) | 2 (≈ 2.53 µM) | ≤ 0.125 | 1 (≈ 1.27 µM) | 0.25 (≈ 0.317 µM) | 2 (≈ 2.53 µM) | > 64 | 1 (≈ 1.27 µM) | 4 (≈ 5.07 µM)
CCOc1ccccc1N1CCN(CC(O)CO[C@]2(C)C[C@@H](C)NC(=O)[C@H](C)[C@@H](O)[C@](C)(O)[C@@H](CC)OC(=O)[C@H](C)C(=O)[C@H](C)[C@H]2O[C@@H]2O[C@H](C)C[C@H](N(C)C)[C@H]2O)CC1 (mixture of isomers) | 16 | 2 | 32 | 0.5 | 16 | 8 | ≤ 0.125 | 8 | 4 | 2 | > 64 | 2 | 4
CC[C@H]1OC(=O)[C@H](C)C(=O)[C@H](C)[C@@H](O[C@@H]2O[C@H](C)C[C@H](N(C)C)[C@H]2O)[C@](C)(OCC(O)CNCCc2ccc([N+](=O)[O-])cc2)C[C@@H](C)NC(=O)[C@H](C)[C@@H](O)[C@]1(C)O (mixture of isomers) | ≤ 0.125 | ≤ 0.125 | 1 | ≤ 0.125 | 1 | 0.25 | ≤ 0.125 | 0.5 | 1 | 1 | > 64 | ≤ 0.125 | 0.25
CC[C@H]1OC(=O)[C@H](C)C(=O)[C@H](C)[C@@H](O[C@@H]2O[C@H](C)C[C@H](N(C)C)[C@H]2O)[C@](C)(OC[C@H](O)CNCCNc2ccc3ncccc3c2)C[C@@H](C)NC(=O)[C@H](C)[C@@H](O)[C@]1(C)O | 0.5 (≈ 0.601 µM) | 0.5 (≈ 0.601 µM) | 0.5 (≈ 0.601 µM) | ≤ 0.125 | 4 (≈ 4.81 µM) | 0.5 (≈ 0.601 µM) | ≤ 0.125 | 0.25 (≈ 0.3 µM) | 0.5 (≈ 0.601 µM) | 0.25 (≈ 0.3 µM) | > 64 | ≤ 0.125 | 0.5 (≈ 0.601 µM)
